Experimental data as given in ChEMBL document CHEMBL4007388, “Synthesis and antiproliferative activity of monocationic arylthiophene derivatives” (Eur J Med Chem, 2017).

What was measured:
CCRF-CEM = test: Growth inhibition of human CCRF-CEM cells incubated for 48 hrs by sulforhodamine B assay; type: functional
HL-60(TB) = test: Growth inhibition of human HL-60(TB) cells incubated for 48 hrs by sulforhodamine B assay; type: functional; settings: HL-60, 48 h
K562 = test: Growth inhibition of human K562 cells incubated for 48 hrs by sulforhodamine B assay; type: functional; settings: K562, 48 h
MOLT-4 = test: Growth inhibition of human MOLT4 cells incubated for 48 hrs by sulforhodamine B assay; type: functional; settings: MOLT-4, 48 h
RPMI-8226 = test: Growth inhibition of human RPMI8226 cells incubated for 48 hrs by sulforhodamine B assay; type: functional; settings: RPMI-8226, 48 h
SR = test: Growth inhibition of human SR cells incubated for 48 hrs by sulforhodamine B assay; type: functional
A549 = test: Growth inhibition of human A549/ATCC cells incubated for 48 hrs by sulforhodamine B assay; type: functional; settings: A549, 48 h
HOP-62 = test: Growth inhibition of human HOP62 cells incubated for 48 hrs by sulforhodamine B assay; type: functional; settings: HOP-62, 48 h
HOP-92 = test: Growth inhibition of human HOP92 cells incubated for 48 hrs by sulforhodamine B assay; type: functional; settings: HOP-92, 48 h
NCI-H226 = test: Growth inhibition of human NCI-H226 cells incubated for 48 hrs by sulforhodamine B assay; type: functional; settings: NCI-H226, 48 h
NCI-H23 = test: Growth inhibition of human NCI-H23 cells incubated for 48 hrs by sulforhodamine B assay; type: functional; settings: NCI-H23, 48 h
NCI-H460 = test: Growth inhibition of human NCI-H460 cells incubated for 48 hrs by sulforhodamine B assay; type: functional; settings: NCI-H460, 48 h
NCI-H522 = test: Growth inhibition of human NCI-H522 cells incubated for 48 hrs by sulforhodamine B assay; type: functional; settings: NCI-H522, 48 h
COLO 205 = test: Growth inhibition of human COLO205 cells incubated for 48 hrs by sulforhodamine B assay; type: functional; settings: COLO 205, 48 h
HCC 2998 = test: Growth inhibition of human HCC2998 cells incubated for 48 hrs by sulforhodamine B assay; type: functional; settings: HCC 2998, 48 h
HCT-116 = test: Growth inhibition of human HCT116 cells incubated for 48 hrs by sulforhodamine B assay; type: functional; settings: HCT-116, 48 h
HCT-15 = test: Growth inhibition of human HCT15 cells incubated for 48 hrs by sulforhodamine B assay; type: functional; settings: HCT-15, 48 h
HT-29 = test: Growth inhibition of human HT-29 cells incubated for 48 hrs by sulforhodamine B assay; type: functional; settings: HT-29, 48 h
KM12 = test: Growth inhibition of human KM12 cells incubated for 48 hrs by sulforhodamine B assay; type: functional; settings: KM12, 48 h
SW-620 = test: Growth inhibition of human SW620 cells incubated for 48 hrs by sulforhodamine B assay; type: functional; settings: SW-620, 48 h
SF-268 = test: Growth inhibition of human SF268 cells incubated for 48 hrs by sulforhodamine B assay; type: functional; settings: SF-268, 48 h
SF-295 = test: Growth inhibition of human SF295 cells incubated for 48 hrs by sulforhodamine B assay; type: functional; settings: SF-295, 48 h
SF-539 = test: Growth inhibition of human SF539 cells incubated for 48 hrs by sulforhodamine B assay; type: functional; settings: SF-539, 48 h
SNB-19 = test: Growth inhibition of human SNB19 cells incubated for 48 hrs by sulforhodamine B assay; type: functional; settings: SNB-19, 48 h
U-251 = test: Growth inhibition of human U251 cells incubated for 48 hrs by sulforhodamine B assay; type: functional; settings: U-251, 48 h
LOX IMVI = test: Growth inhibition of human LOXIMVI cells incubated for 48 hrs by sulforhodamine B assay; type: functional
M14 = test: Growth inhibition of human M14 cells incubated for 48 hrs by sulforhodamine B assay; type: functional; settings: M14, 48 h
MDA-MB-435 = test: Growth inhibition of human MDA-MB-435 cells incubated for 48 hrs by sulforhodamine B assay; type: functional; settings: MDA-MB-435, 48 h
SK-MEL-2 = test: Growth inhibition of human SK-MEL-2 cells incubated for 48 hrs by sulforhodamine B assay; type: functional; settings: SK-MEL-2, 48 h
SK-MEL-28 = test: Growth inhibition of human SK-MEL-28 cells incubated for 48 hrs by sulforhodamine B assay; type: functional; settings: SK-MEL-28, 48 h
SK-MEL-5 = test: Growth inhibition of human SK-MEL-5 cells incubated for 48 hrs by sulforhodamine B assay; type: functional; settings: SK-MEL-5, 48 h
UACC-257 = test: Growth inhibition of human UACC257 cells incubated for 48 hrs by sulforhodamine B assay; type: functional; settings: UACC-257, 48 h
UACC-62 = test: Growth inhibition of human UACC62 cells incubated for 48 hrs by sulforhodamine B assay; type: functional; settings: UACC-62, 48 h
OVCAR-3 = test: Growth inhibition of human OVCAR3 cells incubated for 48 hrs by sulforhodamine B assay; type: functional; settings: OVCAR-3, 48 h
OVCAR-8 = test: Growth inhibition of human OVCAR8 cells incubated for 48 hrs by sulforhodamine B assay; type: functional; settings: OVCAR-8, 48 h
NCI/ADR-RES = test: Growth inhibition of human NCI/ADR-RES cells incubated for 48 hrs by sulforhodamine B assay; type: functional
SK-OV-3 = test: Growth inhibition of human SKOV3 cells incubated for 48 hrs by sulforhodamine B assay; type: functional; settings: SK-OV-3, 48 h
786-0 = test: Growth inhibition of human 786-O cells incubated for 48 hrs by sulforhodamine B assay; type: functional; settings: 786-0, 48 h
ACHN = test: Growth inhibition of human ACHN cells incubated for 48 hrs by sulforhodamine B assay; type: functional
CAKI-1 = test: Growth inhibition of human Caki1 cells incubated for 48 hrs by sulforhodamine B assay; type: functional; settings: CAKI-1, 48 h
SN12C = test: Growth inhibition of human SN12C cells incubated for 48 hrs by sulforhodamine B assay; type: functional
TK-10 = test: Growth inhibition of human TK10 cells incubated for 48 hrs by sulforhodamine B assay; type: functional; settings: TK-10, 48 h
PC-3 = test: Growth inhibition of human PC3 cells incubated for 48 hrs by sulforhodamine B assay; type: functional; settings: PC-3, 48 h
DU-145 = test: Growth inhibition of human DU145 cells incubated for 48 hrs by sulforhodamine B assay; type: functional; settings: DU-145, 48 h
MCF7 = test: Growth inhibition of human MCF7 cells incubated for 48 hrs by sulforhodamine B assay; type: functional; settings: MCF7, 48 h
Hs-578T = test: Growth inhibition of human Hs 578T cells incubated for 48 hrs by sulforhodamine B assay; type: functional
BT-549 = test: Growth inhibition of human BT549 cells incubated for 48 hrs by sulforhodamine B assay; type: functional; settings: BT-549, 48 h
T47D = test: Growth inhibition of human T47D cells incubated for 48 hrs by sulforhodamine B assay; type: functional
MDA-MB-468 = test: Growth inhibition of human MDA-MB-468 cells incubated for 48 hrs by sulforhodamine B assay; type: functional; settings: MDA-MB-468, 48 h
WI-38 = test: Cytotoxicity against human WI38 cells assessed as reduction in cell viability after 24 hrs by MTT assay; type: cell-based; settings: WI-38, 24 h
WISH = test: Cytotoxicity against human WISH cells assessed as reduction in cell viability after 24 hrs by MTT assay; type: cell-based
[1] = Antioxidant activity assessed as superoxide dismutase-like activity by measuring inhibition of superoxide radical anion production at 2 uM by NBT reduction assay relative to control; type: functional
Escherichia coli = test: Induction of Escherichia coli genomic DNA cleavage after 1 hr by agarose gel electrophoresis method
Homo sapiens = species: Homo sapiens; test: Inhibition of PTK in human MCF7 cells at 1 uM preincubated for 2 hrs followed by poly-Glu-Tyr substrate addition by ELISA relative to control; type: cell-based
[2] = Growth inhibition of human NCI60 cells at 10 uM after 48 hrs by SRB assay relative to control; values are per cent of control; settings: NCI60, 48 h

## N=C(N)c1ccc(-c2ccc(-c3cc(Cl)cc(Cl)c3)s2)cc1
CCRF-CEM
  GI50: 1540 nM
HL-60(TB)
  GI50: 1070 nM
K562
  GI50: 225 nM
MOLT-4
  GI50: 1180 nM
RPMI-8226
  GI50: 639 nM
SR
  GI50: 284 nM
A549
  GI50: 1520 nM
HOP-62
  GI50: 1690 nM
HOP-92
  GI50: 1710 nM
NCI-H226
  GI50: 2090 nM
NCI-H23
  GI50: 1750 nM
NCI-H460
  GI50: 375 nM
NCI-H522
  GI50: 2350 nM
COLO 205
  GI50: 304 nM
HCC 2998
  GI50: 634 nM
HCT-116
  GI50: 468 nM
HCT-15
  GI50: 255 nM
HT-29
  GI50: 379 nM
KM12
  GI50: 698 nM
SW-620
  GI50: 318 nM
SF-268
  GI50: 1630 nM
SF-295
  GI50: 1380 nM
SF-539
  GI50: 1970 nM
SNB-19
  GI50: 1200 nM
U-251
  GI50: 254 nM
LOX IMVI
  GI50: 155 nM
M14
  GI50: 1540 nM
MDA-MB-435
  GI50: 1520 nM
SK-MEL-2
  GI50: 1990 nM
SK-MEL-28
  GI50: 1710 nM
SK-MEL-5
  GI50: 1600 nM
UACC-257
  GI50: 2480 nM
UACC-62
  GI50: 1550 nM
OVCAR-3
  GI50: 1700 nM
OVCAR-8
  GI50: 2420 nM
NCI/ADR-RES
  GI50: 1930 nM
SK-OV-3
  GI50: 454 nM
786-0
  GI50: 1310 nM
ACHN
  GI50: 1890 nM
CAKI-1
  GI50: 1510 nM
SN12C
  GI50: 1570 nM
TK-10
  GI50: 1870 nM
PC-3
  GI50: 1750 nM
DU-145
  GI50: 970 nM
MCF7
  GI50: 193 nM
Hs-578T
  GI50: 2050 nM
BT-549
  GI50: 2050 nM
T47D
  GI50: 1480 nM
MDA-MB-468
  GI50: 1030 nM
WI-38
  IC50: 138000 nM
WISH
  IC50: 156000 nM
[1]
  inhibition: 62.3%
Escherichia coli
  Activity: Dose-dependent effect
Homo sapiens
  inhibition: 19 to 36%
[2]
  growth percent at 10 µM: -70.3%
